Measured values taken from ChEMBL document CHEMBL4699535, “Dolabellane and Clerodane Diterpenoids from the Twigs and Leaves of Casearia kurzii” (J Nat Prod, 2020).
Each block holds one compound with its values, some of them ahead of it.

Experiments:
A549 [1] = assay: Antiproliferative activity against human A549 cells assessed as reduction in cell viability after 24 to 72 hrs by MTT assay; format: functional, cell-based
[2] = molecular target: NAD(P)H dehydrogenase [quinone] 1 (Mus musculus) (UniProt Q64669); assay: Induction of quinone reductase in mouse Hepa1c1c7 cells at 100 uM incubated for 24 hrs by MTT based assay; format: cell-based; details: filed as activator
A549 [3] = assay: Induction of apoptosis in human A549 cells assessed as late apoptotic cells at 20 uM after 24 hrs by Annexin-V FITC/PI staining based flow cytometry analysis (reference value: 9.6%); format: functional
A549 [4] = assay: Induction of apoptosis in human A549 cells assessed as early apoptotic cells at 20 uM after 24 hrs by Annexin-V FITC/PI staining based flow cytometry analysis (reference value: 3.97 to 4.33%); format: functional
A549 [5] = assay: Induction of apoptosis in human A549 cells assessed as early apoptotic cells at 10 uM after 24 hrs by Annexin-V FITC/PI staining based flow cytometry analysis (reference value: 3.97 to 4.33%); format: functional
A549 [6] = assay: Induction of cell cycle arrest in human A549 cells assessed as accumulation at G0/G1 phase at 20 uM after 24 hrs by propodium iodide staining based flow cytometric analysis (reference value: 60.74 to 65.6%); format: functional
A549 [7] = assay: Induction of cell cycle arrest in human A549 cells assessed as accumulation at S phase at 10 uM after 24 hrs by propodium iodide staining based flow cytometric analysis (reference value: 23.42 to 28.6%); format: functional
A549 [8] = assay: Induction of apoptosis in human A549 cells assessed as late apoptotic cells at 10 uM after 24 hrs by Annexin-V FITC/PI staining based flow cytometry analysis (reference value: 9.6%); format: functional
A549 [9] = assay: Induction of cell cycle arrest in human A549 cells assessed as accumulation at G2/M phase at 10 uM after 24 hrs by propodium iodide staining based flow cytometric analysis (reference value: 10.66 to 10.98%); format: functional
A549 [10] = assay: Induction of cell cycle arrest in human A549 cells assessed as accumulation at S phase at 5 uM after 24 hrs by propodium iodide staining based flow cytometric analysis (reference value: 23.42 to 28.6%); format: functional
A549 [11] = assay: Induction of cell cycle arrest in human A549 cells assessed as accumulation at G2/M phase at 20 uM after 24 hrs by propodium iodide staining based flow cytometric analysis (reference value: 10.66 to 10.98%); format: functional
A549 [12] = assay: Induction of cell cycle arrest in human A549 cells assessed as accumulation at G2/M phase at 5 uM after 24 hrs by propodium iodide staining based flow cytometric analysis (reference value: 10.66 to 10.98%); format: functional
A549 [13] = assay: Induction of cell cycle arrest in human A549 cells assessed as accumulation at G0/G1 phase at 10 uM after 24 hrs by propodium iodide staining based flow cytometric analysis (reference value: 60.74 to 65.6%); format: functional
A549 [14] = assay: Induction of cell cycle arrest in human A549 cells assessed as accumulation at S phase at 20 uM after 24 hrs by propodium iodide staining based flow cytometric analysis (reference value: 23.42 to 28.6%); format: functional
[15] = molecular target: NAD(P)H dehydrogenase [quinone] 1 (Mus musculus) (UniProt Q64669); assay: Induction of quinone reductase in mouse Hepa1c1c7 cells at 50 uM incubated for 24 hrs by MTT based assay; format: cell-based; details: filed as activator
A549 [16] = assay: Induction of cell cycle arrest in human A549 cells assessed as accumulation at G0/G1 phase at 5 uM after 24 hrs by propodium iodide staining based flow cytometric analysis (reference value: 60.74 to 65.6%); format: functional
[17] = Homo sapiens, A549, read-out: IC50

Sequence of NAD(P)H dehydrogenase [quinone] 1 (Mus musculus) (Q64669 whole entry): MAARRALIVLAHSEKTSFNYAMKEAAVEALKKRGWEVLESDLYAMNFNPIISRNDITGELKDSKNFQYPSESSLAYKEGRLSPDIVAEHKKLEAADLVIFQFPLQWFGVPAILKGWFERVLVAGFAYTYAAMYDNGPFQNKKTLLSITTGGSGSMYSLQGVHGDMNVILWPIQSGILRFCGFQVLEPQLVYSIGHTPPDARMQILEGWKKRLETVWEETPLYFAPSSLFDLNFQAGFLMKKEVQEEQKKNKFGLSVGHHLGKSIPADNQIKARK

IC50 (A549 [1]; a549): Not Active
Structure (SMILES): CC(=O)O[C@H]1O[C@@H](OC(C)=O)[C@]23C1=C[C@H](OC(=O)CC(C)C)C[C@H]2[C@](C)(C/C=C/C=O)[C@H](C)C[C@@H]3O

IC50 (A549 [1]; a549): Not Active
fold change (FC) [2]: 1.5
Structure (SMILES): C/C1=C\CC[C@]2(C)O[C@H]2C[C@@H]2C(=O)C=C(C(C)C)[C@@]2(O)CC1

IC50 (A549 [1]; [17]): 4.4 µM
Structure (SMILES): CC(=O)O[C@H]1O[C@@H](OC(C)=O)[C@]23C1=C[C@H](OC(=O)CC(C)C)C[C@H]2[C@](C)(C/C=C(\C)C=O)[C@H](C)C[C@@H]3O
Activity (A549 [3]): 25.27%
Activity (A549 [4]): 13.7%
Activity (A549 [5]): 6.04%
Activity (A549 [6]): 44.84%
Activity (A549 [7]): 23.87%
Activity (A549 [8]): 9.94%
Activity (A549 [9]): 19.14%
Activity (A549 [10]): 27.45%
Activity (A549 [11]): 20.56%
Activity (A549 [12]): 11.09%
Activity (A549 [13]): 56.99%
Activity (A549 [14]): 34.59%

IC50 (A549 [1]; a549): Not Active
fold change (FC) [2]: 1.5
Structure (SMILES): C/C1=C/C[C@@H]2[C@@](C)(C/C=C(\C)CC[C@@H]1O)CC[C@@]2(O)C(C)C

IC50 (A549 [1]; a549): Not Active
Structure (SMILES): CC1=C2C[C@@]3(C)CC[C@@](O)(C(C)C)[C@@H]3CC[C@]2(C)[C@@H](O)CC1

IC50 (A549 [1]; a549): Not Active
Structure (SMILES): CC(=O)O[C@H]1O[C@@H](OC(C)=O)[C@]23C1=C[C@H](OC(=O)C(C)C)C[C@H]2[C@](C)(C/C=C(\C)C=O)[C@H](C)C[C@@H]3O

IC50 (A549 [1]; a549): Not Active
Structure (SMILES): C=C/C(C)=C/C[C@]1(C)[C@H](C)C[C@H](OC(=O)C(C)C)[C@@]23C(=C[C@H](O)C[C@@H]12)[C@@H](OC(C)=O)O[C@H]3OC(C)=O

IC50 (A549 [1]; a549): Not Active
Structure (SMILES): C=C/C(C)=C/C[C@]1(C)[C@H](C)C[C@H](OC(=O)CC(C)C)[C@@]23C(=C[C@H](O)C[C@@H]12)[C@@H](OC(C)=O)O[C@H]3OC(C)=O

IC50 (A549 [1]; a549): Not Active
fold change (FC) [2]: 1.5
Structure (SMILES): C/C1=C\C[C@@]2(C)CC[C@@](O)(C(C)C)[C@@H]2C/C=C(\C)[C@@H](O)CC1

IC50 (A549 [1]; a549): Not Active
fold change (FC) [15]: 1.4
Structure (SMILES): CC1=CC[C@H](O)[C@@]2(C)CC[C@@H]3[C@](C)(CC[C@@]3(O)C(C)C)C[C@H]12

IC50 (A549 [1]; [17]): 4.6 µM
Structure (SMILES): C=CC(=C)[C@H](O)C[C@]1(C)[C@H](C)C[C@H](O)[C@@]23C(=C[C@H](OC(=O)CC(C)C)C[C@@H]12)[C@@H](OC(C)=O)O[C@H]3OC(C)=O
Activity (A549 [3]): 35.73%
Activity (A549 [4]): 10.41%
Activity (A549 [5]): 5.44%
Activity (A549 [6]): 38.95%
Activity (A549 [7]): 31.33%
Activity (A549 [8]): 10.45%
Activity (A549 [9]): 13.21%
Activity (A549 [16]): 64.17%
Activity (A549 [10]): 24.62%
Activity (A549 [11]): 0%
Activity (A549 [12]): 11.21%
Activity (A549 [13]): 55.45%
Activity (A549 [14]): 61.05%

IC50 (A549 [1]; a549): Not Active
Structure (SMILES): C=C/C(C)=C/C[C@]1(C)[C@H](C)C[C@H](OC(=O)[C@@H](C)CC)[C@@]23C(=C[C@H](O)C[C@@H]12)[C@@H](OC(C)=O)O[C@H]3OC(C)=O

IC50 (A549 [1]; a549): Not Active
fold change (FC) [2]: 1.5
Structure (SMILES): C=C1CC[C@@H]2[C@@](C)(C/C=C(\C)CC[C@@H]1O)CC[C@@]2(O)C(C)C

IC50 (A549 [1]; a549): Not Active
fold change (FC) [2]: 1.9
Structure (SMILES): C/C1=C\CC[C@@]2(C)O[C@@H]2C[C@H]2C(=O)C=C(C(C)C)[C@]2(O)CC1

IC50 (A549 [1]; a549): Not Active
Structure (SMILES): C=C/C(C)=C/C[C@]1(C)[C@H](C)C[C@H](OC(=O)[C@@H](C)CC)[C@@]23C(=CC(=O)C[C@@H]12)[C@@H](OC(C)=O)O[C@H]3OC(C)=O
